Laboratory results taken from US6395725B1, “Analgesic methods using synthetic catalysts for the dismutation of superoxide radicals” (priority 1997, dated 2002).

How the values were obtained:
morphine tolerance = conditions: literature background; cited from earlier work
tolerance to morphine = assay: Morphine tolerance in mice, hot plate test; type: in vivo
Description: Mice were treated twice a day with either saline (naive) or morphine (s.c., 10 mg/kg) for a period of 4 days to induce tolerance. For comparison, a dose of 10 mg, or less than 0.15 mg/kg every 4 to 10 hours, is a morphine dosage routinely prescribed for the 70 kg. human adult with severe pain. On day 5, all mice received a subcutaneous challenge dose of 3 mg./kg morphine and the level of analgesia was measured 30 minutes later. […] Tolerance to morphine was eliminated in mice that were treated with the superoxide dismutase catalyst SC-72325 administered intraperitoneally.

[1] = tested on: temporomandibular joint dysfunction; conditions: intra-articular injections, patients with TMJ dysfunction; cited from earlier work

Q: For `C[C@]12N[C@H](Cc3ccccc31)c1ccccc12` [MK-801], which morphine tolerance (morphine tolerance) is on record?
A: prevent morphine tolerance

Q: Which morphine tolerance (morphine tolerance) does the source give for `NC(=NCCC[C@H](N)C(=O)O)N[N+](=O)[O-]` [NG-nitroarginine] here?
A: prevent and reverse morphine tolerance

Q: With `CN1CC[C@]23c4c5ccc(O)c4O[C@H]2[C@@H](O)C=C[C@H]3[C@H]1C5` [morphine] as the compound, how does the “analgesic effect from morphine on day 5” value (tolerance to morphine; mice treated with morphine s.c. 10 mg/kg twice a day for 4 days, challenge 3 mg/kg, 30 minutes, versus naive mice) read?
A: decreased analgesic effect

Q: What about the analgesia (tolerance to morphine; naive or non-tolerant mice, s.c. challenge dose 3 mg/kg, hot plate test) of the same compound?
A: 90%

Q: For “human Cu/Zn superoxide dismutase: naturally occurring enzyme used intra-articularly as a nonsteroidal anti-inflammatory”, which “Positive response in terms of mandibular movement and pain” value [1] is on record?
A: 83 % of patients
